The values that follow come from patent US9732119B2, “Immunomodulators” (BRISTOL-MYERS SQUIBB COMPANY, priority 2014, dated 2017).

This test concerns the target T1, PD-1-Ig binding to PD-L1-TVMV-His (PD-L1-His) (Homo sapiens, UniProt Q9NZQ7).
T1 construct: hPDL1(19-239)-TVMV-His; made in house; host or cells: HEK293T cells
Kind of test: PD-1/PD-L1 Homogenous Time-Resolved Fluorescence (HTRF) binding assay. The following applies: PD-1-Ig (20 nM) / PD-L1-His (10 nM). Put shortly:
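In dPBS with 0.1% BSA and 0.05% Tween-20, inhibitors were preincubated 15 min with 10 nM PD-L1-His before 20 nM PD-1-Ig was added for another 15 min. Binding read by time-resolved FRET between Eu-cryptate anti-Ig (1 nM) and APC anti-His (20 nM).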
For orientation: Time-resolved FRET reads energy transfer from a long-lived donor to a nearby acceptor.

T1 sequence (Q9NZQ7 with tags, fused parts or gaps): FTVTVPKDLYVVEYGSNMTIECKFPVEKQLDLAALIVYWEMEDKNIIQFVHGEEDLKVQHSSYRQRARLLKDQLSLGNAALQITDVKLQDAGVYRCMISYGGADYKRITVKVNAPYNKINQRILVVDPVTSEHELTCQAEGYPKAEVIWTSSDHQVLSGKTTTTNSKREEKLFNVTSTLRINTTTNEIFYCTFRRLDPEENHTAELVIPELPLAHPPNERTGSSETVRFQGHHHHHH

What is called IC50 is the concentration at which inhibition is half-maximal. As to `CCCC[C@H]1C(=O)N(C)[C@@H](CCCC)C(=O)N[C@@H](CCC(=O)O)C(=O)N[C@H](C(=O)NCC(N)=O)CNCC(=O)N[C@@H](Cc2ccc(O)cc2)C(=O)N(C)[C@@H](C)C(=O)N[C@@H](CC(N)=O)C(=O)N2CCC[C@H]2C(=O)N[C@@H](CCC(N)=O)C(=O)N[C@@H](CCC(=O)O)C(=O)N2C[C@H](O)C[C@H]2C(=O)N[C@@H](Cc2c[nH]c3ccccc23)C(=O)N[C@@H](CC(N)=O)C(=O)N[C@@H](Cc2cn(CC(=O)O)c3ccccc23)C(=O)N1C` [Example 9020], under “range classes”, the half-inhibitory concentration (IC50) was 10 to 99 nM.
Still for that read-out and setting: with `CCCC[C@H]1C(=O)N(C)[C@@H](CCCC)C(=O)N[C@@H](CCC(=O)O)C(=O)N[C@H](C(=O)NCC(N)=O)CNCC(=O)N[C@@H](Cc2ccc(O)cc2)C(=O)N(C)[C@@H](C)C(=O)N[C@@H](CC(N)=O)C(=O)N2CCC[C@H]2C(=O)N[C@@H](CCC(N)=O)C(=O)N[C@@H](CCC(N)=O)C(=O)N2C[C@H](O)C[C@H]2C(=O)N[C@@H](Cc2c[nH]c3ccccc23)C(=O)N[C@@H](CC(N)=O)C(=O)N[C@@H](Cc2cn(CC(=O)O)c3ccccc23)C(=O)N1C` [Example 9021] the figure was 10 to 99 nM.
The same measure, in the same setting: under `CCCC[C@H]1C(=O)N(C)[C@@H](CCCC)C(=O)N[C@@H](CCC(=O)O)C(=O)N[C@H](C(=O)NCC(N)=O)CNCC(=O)N[C@@H](Cc2ccc(F)cc2)C(=O)N(C)[C@@H](C)C(=O)N[C@@H](CC(N)=O)C(=O)N2CCC[C@H]2C(=O)N[C@@H](CCC(N)=O)C(=O)N[C@@H](CC(C)C)C(=O)N2C[C@H](O)C[C@H]2C(=O)N[C@@H](Cc2c[nH]c3ccccc23)C(=O)N[C@@H](CC(N)=O)C(=O)N[C@@H](Cc2cn(CC(=O)O)c3ccccc23)C(=O)N1C` [Example 9022] stands 10 to 99 nM.
On the same count and under the same terms, with `CCCC[C@H]1C(=O)N(C)[C@@H](CCCC)C(=O)N[C@@H](CCC(=O)O)C(=O)N[C@H](C(=O)NCC(N)=O)CNCC(=O)N[C@@H](Cc2ccc(F)cc2)C(=O)N(C)[C@@H](C)C(=O)N[C@@H](CC(N)=O)C(=O)N2CCC[C@H]2C(=O)N[C@@H](CCC(N)=O)C(=O)N[C@@H](CC(=O)O)C(=O)N2C[C@H](O)C[C@H]2C(=O)N[C@@H](Cc2c[nH]c3ccccc23)C(=O)N[C@@H](CC(N)=O)C(=O)N[C@@H](Cc2cn(CC(=O)O)c3ccccc23)C(=O)N1C` [Example 9023] the figure was 10 to 99 nM.
Regarding `CCCC[C@H]1C(=O)N(C)[C@@H](CCCC)C(=O)N[C@@H](CCC(=O)O)C(=O)N[C@H](C(=O)NCC(N)=O)CNCC(=O)N[C@@H](Cc2ccc(F)cc2)C(=O)N(C)[C@@H](C)C(=O)N[C@@H](CC(N)=O)C(=O)N2CCC[C@H]2C(=O)N[C@@H](CCC(N)=O)C(=O)N[C@@H](CCC(=O)O)C(=O)N2C[C@H](O)C[C@H]2C(=O)N[C@@H](Cc2c[nH]c3ccccc23)C(=O)N[C@@H](CC(N)=O)C(=O)N[C@@H](Cc2cn(CC(=O)O)c3ccccc23)C(=O)N1C` [Example 9024], the IC50 (range classes) fell in the range of 10 to 99 nM.
With `CCCC[C@H]1C(=O)N(C)[C@@H](CCCC)C(=O)N[C@@H](CCC(=O)O)C(=O)N[C@H](C(=O)NCC(N)=O)CNCC(=O)N[C@@H](Cc2ccc(F)cc2)C(=O)N(C)[C@@H](C)C(=O)N[C@@H](CC(N)=O)C(=O)N2CCC[C@H]2C(=O)N[C@@H](CCC(N)=O)C(=O)N[C@@H](CCC(N)=O)C(=O)N2C[C@H](O)C[C@H]2C(=O)N[C@@H](Cc2c[nH]c3ccccc23)C(=O)N[C@@H](CC(N)=O)C(=O)N[C@@H](Cc2cn(CC(=O)O)c3ccccc23)C(=O)N1C` [Example 9025], the IC50 (numeric values) came out at 16 nM.
The compound `CCCC[C@H]1C(=O)N(C)[C@@H](CCCC)C(=O)N[C@@H](CC(C)C)C(=O)N[C@H](C(N)=O)CNCC(=O)N[C@@H](Cc2ccc(O)cc2)C(=O)N2CCCC[C@H]2C(=O)N[C@@H](CC(N)=O)C(=O)N2CCC[C@H]2C(=O)N[C@@H](CCC(N)=O)C(=O)N[C@@H](CC(C)C)C(=O)N2C[C@H](O)C[C@H]2C(=O)N[C@@H](Cc2c[nH]c3ccccc23)C(=O)N[C@@H](CC(N)=O)C(=O)N[C@@H](Cc2cn(CC(=O)O)c3ccccc23)C(=O)N1C` [Example 9026] yielded an IC50 (range classes) of 1 to 9.9 nM.
As to `CCCC[C@H]1C(=O)N(C)[C@@H](CCCC)C(=O)N[C@@H](CC(C)C)C(=O)N[C@H](C(N)=O)CNCC(=O)N[C@@H](Cc2ccc(O)cc2)C(=O)N2CCCC[C@H]2C(=O)N[C@@H](CC(N)=O)C(=O)N2CCC[C@H]2C(=O)N[C@@H](CCC(N)=O)C(=O)N[C@@H](CC(=O)O)C(=O)N2C[C@H](O)C[C@H]2C(=O)N[C@@H](Cc2c[nH]c3ccccc23)C(=O)N[C@@H](CC(N)=O)C(=O)N[C@@H](Cc2cn(CC(=O)O)c3ccccc23)C(=O)N1C` [Example 9027], the IC50 (range classes) fell in the range of 1 to 9.9 nM.
Still for that read-out and setting: under `CCCC[C@H]1C(=O)N(C)[C@@H](CCCC)C(=O)N[C@@H](CC(C)C)C(=O)N[C@H](C(N)=O)CNCC(=O)N[C@@H](Cc2ccc(O)cc2)C(=O)N2CCCC[C@H]2C(=O)N[C@@H](CC(N)=O)C(=O)N2CCC[C@H]2C(=O)N[C@@H](CCC(N)=O)C(=O)N[C@@H](CCC(=O)O)C(=O)N2C[C@H](O)C[C@H]2C(=O)N[C@@H](Cc2c[nH]c3ccccc23)C(=O)N[C@@H](CC(N)=O)C(=O)N[C@@H](Cc2cn(CC(=O)O)c3ccccc23)C(=O)N1C` [Example 9028] stands 1 to 9.9 nM; under `CCCC[C@H]1C(=O)N(C)[C@@H](CCCC)C(=O)N[C@@H](CC(C)C)C(=O)N[C@H](C(N)=O)CNCC(=O)N[C@@H](Cc2ccc(O)cc2)C(=O)N2CCCC[C@H]2C(=O)N[C@@H](CC(N)=O)C(=O)N2CCC[C@H]2C(=O)N[C@@H](CCC(N)=O)C(=O)N[C@@H](CCC(N)=O)C(=O)N2C[C@H](O)C[C@H]2C(=O)N[C@@H](Cc2c[nH]c3ccccc23)C(=O)N[C@@H](CC(N)=O)C(=O)N[C@@H](Cc2cn(CC(=O)O)c3ccccc23)C(=O)N1C` [Example 9029], 1 to 9.9 nM.
On the same count and under the same terms, under `CCCC[C@H]1C(=O)N(C)[C@@H](CCCC)C(=O)N[C@@H](CC(C)C)C(=O)N[C@H](C(N)=O)CNCC(=O)N[C@@H](Cc2ccc(F)cc2)C(=O)N2CCCC[C@H]2C(=O)N[C@@H](CC(N)=O)C(=O)N2CCC[C@H]2C(=O)N[C@@H](CCC(N)=O)C(=O)N[C@@H](CC(C)C)C(=O)N2C[C@H](O)C[C@H]2C(=O)N[C@@H](Cc2c[nH]c3ccccc23)C(=O)N[C@@H](CC(N)=O)C(=O)N[C@@H](Cc2cn(CC(=O)O)c3ccccc23)C(=O)N1C` [Example 9030] stands 10 to 99 nM; under `CCCC[C@H]1C(=O)N(C)[C@@H](CCCC)C(=O)N[C@@H](CC(C)C)C(=O)N[C@H](C(N)=O)CNCC(=O)N[C@@H](Cc2ccc(F)cc2)C(=O)N2CCCC[C@H]2C(=O)N[C@@H](CC(N)=O)C(=O)N2CCC[C@H]2C(=O)N[C@@H](CCC(N)=O)C(=O)N[C@@H](CC(=O)O)C(=O)N2C[C@H](O)C[C@H]2C(=O)N[C@@H](Cc2c[nH]c3ccccc23)C(=O)N[C@@H](CC(N)=O)C(=O)N[C@@H](Cc2cn(CC(=O)O)c3ccccc23)C(=O)N1C` [Example 9031], 1 to 9.9 nM.
On the same count and under the same terms, under `CCCC[C@H]1C(=O)N(C)[C@@H](CCCC)C(=O)N[C@@H](CC(C)C)C(=O)N[C@H](C(N)=O)CNCC(=O)N[C@@H](Cc2ccc(F)cc2)C(=O)N2CCCC[C@H]2C(=O)N[C@@H](CC(N)=O)C(=O)N2CCC[C@H]2C(=O)N[C@@H](CCC(N)=O)C(=O)N[C@@H](CCC(=O)O)C(=O)N2C[C@H](O)C[C@H]2C(=O)N[C@@H](Cc2c[nH]c3ccccc23)C(=O)N[C@@H](CC(N)=O)C(=O)N[C@@H](Cc2cn(CC(=O)O)c3ccccc23)C(=O)N1C` [Example 9032] stands 1 to 9.9 nM.
The compound `CCCC[C@H]1C(=O)N(C)[C@@H](CCCC)C(=O)N[C@@H](CC(C)C)C(=O)N[C@H](C(N)=O)CNCC(=O)N[C@@H](Cc2ccc(F)cc2)C(=O)N2CCCC[C@H]2C(=O)N[C@@H](CC(N)=O)C(=O)N2CCC[C@H]2C(=O)N[C@@H](CCC(N)=O)C(=O)N[C@@H](CCC(N)=O)C(=O)N2C[C@H](O)C[C@H]2C(=O)N[C@@H](Cc2c[nH]c3ccccc23)C(=O)N[C@@H](CC(N)=O)C(=O)N[C@@H](Cc2cn(CC(=O)O)c3ccccc23)C(=O)N1C` [Example 9033] returned an IC50 (range classes) of 1 to 9.9 nM.
Same read-out and setting: under `CCCC[C@H]1C(=O)N(C)[C@@H](CCCC)C(=O)N[C@@H](CC(C)C)C(=O)N[C@H](C(N)=O)CNCC(=O)N[C@@H](Cc2ccc(O)cc2)C(=O)N2CCCC[C@H]2C(=O)N[C@@H](CC(=O)O)C(=O)N2CCC[C@H]2C(=O)N[C@@H](CCC(N)=O)C(=O)N[C@@H](CC(C)C)C(=O)N2C[C@H](O)C[C@H]2C(=O)N[C@@H](Cc2c[nH]c3ccccc23)C(=O)N[C@@H](CC(N)=O)C(=O)N[C@@H](Cc2cn(CC(=O)O)c3ccccc23)C(=O)N1C` [Example 9034] stands 1 to 9.9 nM; under `CCCC[C@H]1C(=O)N(C)[C@@H](CCCC)C(=O)N[C@@H](CC(C)C)C(=O)N[C@H](C(N)=O)CNCC(=O)N[C@@H](Cc2ccc(O)cc2)C(=O)N2CCCC[C@H]2C(=O)N[C@@H](CC(=O)O)C(=O)N2CCC[C@H]2C(=O)N[C@@H](CCC(N)=O)C(=O)N[C@@H](CC(=O)O)C(=O)N2C[C@H](O)C[C@H]2C(=O)N[C@@H](Cc2c[nH]c3ccccc23)C(=O)N[C@@H](CC(N)=O)C(=O)N[C@@H](Cc2cn(CC(=O)O)c3ccccc23)C(=O)N1C` [Example 9035], 1 to 9.9 nM; under `CCCC[C@H]1C(=O)N(C)[C@@H](CCCC)C(=O)N[C@@H](CC(C)C)C(=O)N[C@H](C(N)=O)CNCC(=O)N[C@@H](Cc2ccc(O)cc2)C(=O)N2CCCC[C@H]2C(=O)N[C@@H](CC(=O)O)C(=O)N2CCC[C@H]2C(=O)N[C@@H](CCC(N)=O)C(=O)N[C@@H](CCC(N)=O)C(=O)N2C[C@H](O)C[C@H]2C(=O)N[C@@H](Cc2c[nH]c3ccccc23)C(=O)N[C@@H](CC(N)=O)C(=O)N[C@@H](Cc2cn(CC(=O)O)c3ccccc23)C(=O)N1C` [Example 9037], 1 to 9.9 nM.
Same read-out and setting: under `CCCC[C@H]1C(=O)N(C)[C@@H](CCCC)C(=O)N[C@@H](CC(C)C)C(=O)N[C@H](C(N)=O)CNCC(=O)N[C@@H](Cc2ccc(F)cc2)C(=O)N2CCCC[C@H]2C(=O)N[C@@H](CC(=O)O)C(=O)N2CCC[C@H]2C(=O)N[C@@H](CCC(N)=O)C(=O)N[C@@H](CC(C)C)C(=O)N2C[C@H](O)C[C@H]2C(=O)N[C@@H](Cc2c[nH]c3ccccc23)C(=O)N[C@@H](CC(N)=O)C(=O)N[C@@H](Cc2cn(CC(=O)O)c3ccccc23)C(=O)N1C` [Example 9038] stands 1 to 9.9 nM.
